The text below walks through data of ChEMBL document CHEMBL5376002, “A Hybrid Antimicrobial Peptide Targeting Staphylococcus aureus with a Dual Function of Inhibiting Quorum Sensing Signaling and an Antibacterial Effect” (J Med Chem, 2023).

The test system of experiment [1] is Staphylococcus aureus. Nature of the experiment: Antibacterial activity against Staphylococcus aureus ATCC 6538p assessed as inhibition of bacterial growth incubated for 18 to 24 hrs. The class given is functional. Particulars: time 18-24 hrs.
Experiment [2] has as its system Staphylococcus aureus. Nature of the experiment: Bactericidal activity against Staphylococcus aureus ATCC 6538p assessed as inhibition of bacterial growth incubated for 18 to 24 hrs. It counts as functional. Conditions: time 18-24 hrs.
Experiment [3] relates to Staphylococcus aureus. Nature of the experiment: Antibacterial activity against Staphylococcus aureus ATCC 12600 assessed as inhibition of bacterial growth incubated for 18 to 24 hrs. It counts as functional. Particulars: time 18-24 hrs.
The subject of experiment [4] is Staphylococcus aureus. Nature of the experiment: Bactericidal activity against Staphylococcus aureus ATCC 12600 assessed as inhibition of bacterial growth incubated for 18 to 24 hrs. The class given is functional. Particulars: time 18-24 hrs.
The subject of experiment [5] is Staphylococcus aureus. In words: Antibacterial activity against Staphylococcus aureus ATCC 43300 assessed as inhibition of bacterial growth incubated for 18 to 24 hrs. Conditions: time 18-24 hrs. The class given is functional.
Experiment [6] relates to Staphylococcus epidermidis. Nature of the experiment: Antibacterial activity against Staphylococcus epidermidis ATCC 12228 assessed as inhibition of bacterial growth incubated for 18 to 24 hrs. It counts as functional. Conditions: time 18-24 hrs.
Experiment [7] concerns Staphylococcus epidermidis. Nature of the experiment: Bactericidal activity against Staphylococcus epidermidis ATCC 12228 assessed as inhibition of bacterial growth incubated for 18 to 24 hrs. The class given is functional. Conditions: time 18-24 hrs.
The subject of experiment [8] is Streptococcus pneumoniae. In words: Antibacterial activity against Streptococcus pneumoniae ATCC 49619 assessed as inhibition of bacterial growth incubated for 18 to 24 hrs. It counts as functional. Particulars: time 18-24 hrs.
Experiment [9] concerns Streptococcus pneumoniae. Nature of the experiment: Bactericidal activity against Streptococcus pneumoniae ATCC 49619 assessed as inhibition of bacterial growth incubated for 18 to 24 hrs. The class given is functional. Particulars: time 18-24 hrs.
The test system of experiment [10] is Staphylococcus saprophyticus. In words: Antibacterial activity against Staphylococcus saprophyticus ATCC BAA-750 assessed as inhibition of bacterial growth incubated for 18 to 24 hrs. It counts as functional. Particulars: time 18-24 hrs.
Experiment [11] has as its system Staphylococcus saprophyticus. In words: Bactericidal activity against Staphylococcus saprophyticus ATCC BAA-750 assessed as inhibition of bacterial growth incubated for 18 to 24 hrs. The class given is functional. Conditions: time 18-24 hrs.
Experiment [12] concerns Streptococcus mutans. In words: Antibacterial activity against Streptococcus mutans UA159 assessed as inhibition of bacterial growth incubated for 18 to 24 hrs. The class given is functional. Particulars: time 18-24 hrs.
The test system of experiment [13] is Streptococcus mutans. In words: Bactericidal activity against Streptococcus mutans UA159 assessed as inhibition of bacterial growth incubated for 18 to 24 hrs. Conditions: time 18-24 hrs. It counts as functional.
For experiment [14], the system named is Streptococcus mutans. In words: Antibacterial activity against Streptococcus mutans ATCC 25175 assessed as inhibition of bacterial growth incubated for 18 to 24 hrs. It counts as functional. Conditions: time 18-24 hrs.
The subject of experiment [15] is Streptococcus mutans. Nature of the experiment: Bactericidal activity against Streptococcus mutans ATCC 25175 assessed as inhibition of bacterial growth incubated for 18 to 24 hrs. It counts as functional. Particulars: time 18-24 hrs.
Experiment [16] concerns Escherichia coli. Nature of the experiment: Antibacterial activity against Escherichia coli ATCC 25922 assessed as inhibition of bacterial growth incubated for 18 to 24 hrs. The class given is functional. Conditions: time 18-24 hrs.
Experiment [17] deals with Staphylococcus aureus. In words: Bactericidal activity against Staphylococcus aureus ATCC 43300 assessed as inhibition of bacterial growth incubated for 18 to 24 hrs. The class given is functional. Conditions: time 18-24 hrs.
The test system of experiment [18] is Escherichia coli. In words: Bactericidal activity against Escherichia coli ATCC 25922 assessed as inhibition of bacterial growth incubated for 18 to 24 hrs. Particulars: time 18-24 hrs. It counts as functional.
Experiment [19] concerns RAW264.7. Nature of the experiment: Cytotoxicity against mouse RAW264.7 cells assessed as cell viability incubated for 48 hrs by MTT assay. It counts as functional.
Experiment [20] deals with RAW264.7. In words: Cytotoxicity against mouse RAW264.7 cells assessed as cell viability upto 125 uM incubated for 48 hrs by MTT assay. It counts as functional, cell-based. In general terms: Tetrazolium assays rely on reduction of a dye to a coloured formazan, in cell work by metabolically active cells.

By MIC is commonly meant the lowest concentration found to suppress growth. The term MBC denotes the smallest concentration meeting the test's criterion for killing. One may read the CC50 as the concentration giving 50% cytotoxicity.

In brackets after ≈: the same amount, converted by molar mass. Activity calls are given as the source filed them.

Turning to `CC1(C)S[C@@H]2[C@H](NC(=O)[C@H](N)c3ccccc3)C(=O)N2[C@H]1C(=O)O` [AMPICILLIN], the MIC is 0.1 µM (≈ 0.0349 µg/mL) with Staphylococcus aureus [1]; 0.1 µM (≈ 0.0349 µg/mL) in the experiment with Staphylococcus aureus [3]; above 100 µM in the experiment with Staphylococcus aureus [5]; 0.39 µM (≈ 0.136 µg/mL) in [6]; 0.78 µM (≈ 0.273 µg/mL) in the experiment on Streptococcus pneumoniae [8]; 1.56 µM (≈ 0.545 µg/mL) in experiment [10]. The values for the MIC in the experiment with Streptococcus mutans [12], in the experiment on Streptococcus mutans [14] and with Escherichia coli [16] were 12.5 µM (≈ 4.37 µg/mL), 6.25 µM (≈ 2.18 µg/mL) and above 100 µM, respectively. The MBC stood at 0.19 µM (≈ 0.0664 µg/mL) in the experiment with Staphylococcus aureus [2]; 0.19 µM (≈ 0.0664 µg/mL) in the experiment with Staphylococcus aureus [4]; 0.39 µM (≈ 0.136 µg/mL) in experiment [7]; 0.78 µM (≈ 0.273 µg/mL) in the experiment with Streptococcus pneumoniae [9]; 1.56 µM (≈ 0.545 µg/mL) in [11]; 12.5 µM (≈ 4.37 µg/mL) with Streptococcus mutans [13]. Besides, the MBC with Streptococcus mutans [15] amounted to 6.25 µM (≈ 2.18 µg/mL).

As for H-IKNAWKAMIKAWY-OH, the MIC with Staphylococcus aureus [1] came to 6.25 µM; in the experiment with Staphylococcus aureus [3] it was 6.25 µM; in the experiment on Staphylococcus aureus [5] it was 6.25 µM; in experiment [6], 3.13 µM; in the experiment with Streptococcus pneumoniae [8] it was 12.5 µM; in experiment [10] it was 6.25 µM. Besides, the MIC with Streptococcus mutans [12], in the experiment with Streptococcus mutans [14] and with Escherichia coli [16] was 6.25 µM throughout. In addition, the MBC in the experiment with Staphylococcus aureus [2] amounted to 6.25 µM; with Staphylococcus aureus [4], 6.25 µM; in the experiment on Staphylococcus aureus [17] it was 12.5 µM; in experiment [7], 3.13 µM; in the experiment with Streptococcus pneumoniae [9], 12.5 µM; in experiment [11], 12.5 µM. For the same compound, the MBC in the experiment with Streptococcus mutans [13] came to 25 µM; in the experiment on Streptococcus mutans [15] it was 12.5 µM; with Escherichia coli [18], 6.25 µM. The CC50 in the experiment on RAW264.7 [19] was above 125 µM. The result in the experiment with RAW264.7 [20] was inactive.
